{"source": "patent US9119396B2", "about": "“Method for promoting plant growth” (SUMITOMO CHEMICAL COMPANY, LIMITED, priority 2011, dated 2015)", "test_system": "Rice (cultivar: Nipponbare)", "experiment": "Test Example 6: reduction of drought stress by immersion treatment of rice", "assay_type": "in vivo", "conditions": "hydroponic solution 10 ppm for 14 days, drought stress 2 days, then 14 days cultivation", "method": "Evaluation Test for Reduction of Drought Stress by Immersion Treatment of Rice Rice (cultivar: Nipponbare) A necessary amount of rice seeds was immersed in an aqueous solution of 1,000 ppm of Benlate, and incubated at 30° C. overnight under dark conditions. The aqueous solution of Benlate was replaced with distilled water, and the seeds were further incubated at 30° C. overnight under dark conditions. A filter paper was placed on the holes of a plug tray having 406 holes, and the rice seeds treated as above were sown on the filter paper. To the rice seeds were added a kimura B solution for hydroponics (see Plant Science 119: 39-47 (1996)) at ½ concentration and a 1/10,000 volume of a DMSO solution containing the present compound 1 at 100,000 ppm, and cultivated for 14 days under the conditions of a temperature of 28° C. in daytime/23° C. in night, a humidity of 60%, an illuminance of 8500 lux, and a day length of 12 hours. […] Fourteen (14) days after the treatment, the fresh weight of the overground parts of five test plants in each treated group was measured. The experiment was performed in three replications in each treated group and the average value was calculated. […]"}
{"smiles": "COC(=O)c1cc2cc(C(F)(F)F)ccc2s1", "note": "[compound 1]", "values": [{"measurement": "fresh weight of the overground part of plants vs non-treated group", "value": "much heavier"}]}
